Laboratory results as given in ChEMBL document CHEMBL1150677, “Novel tetramic acids and pyridone alkaloids, militarinones B, C, and D, from the insect pathogenic fungus Paecilomyces militaris” (J Nat Prod, 2003).
The source made the active and inactive calls. The calls are words filed in the database; no cut-off is given here.

Legend:
PC-12 [1] = experiment: Neuritogenic activity in rat PC12 cells at 100 uM after 16 hrs; type: functional, cell-based
PC-12 [2] = experiment: Cytotoxicity against rat PC12 cells assessed as effect on LDH release at 33 uM after 24 hrs; type: cell-based; details: pc-12, 24 h
PC-12 [3] = experiment: Cytotoxicity against rat PC12 cells assessed as effect on LDH release at 100 uM after 24 hrs; type: cell-based; details: pc-12, 24 h
PC-12 [4] = experiment: Cytotoxicity against rat PC12 cells assessed as effect on LDH release after 24 hrs; type: cell-based; details: pc-12, 24 h

SMILES	Activity (PC-12 [1])	Activity (PC-12 [2]) [%]	Activity (PC-12 [3]) [%]	Activity (PC-12 [4])
CC[C@@H](C)C[C@@H](C)/C=C(C)/C=C/C=C/C(=O)c1c(O)c(-c2ccc(O)cc2)c[nH]c1=O (relative stereo) [MILITARINONE B]	inactive	30.7	74	
CC[C@@H](C)C[C@@H](C)/C=C(C)/C=C/C=C/C(O)=C1\C(=O)NC(C(O)c2ccc(O)cc2)C1=O (relative stereo) [MILITARINONE C]	Active		16.8	
CC[C@@H](C)C[C@@H](C)/C=C(C)/C=C/C=C/C(O)=C1\C(=O)NC(Cc2ccc(O)cc2)C1=O (relative stereo) [MILITARINONE D]	Active			Non-toxic
